Test [1] can be described thus: inhibitors of firefly luciferase expression or activity, dose response, H4 neuroglioma cells, luminescence (AID 1990). The format is functional, cell-based.
The nature of test [2]: Luminescence Cell-Based Dose Response HTS to Identify Inhibitors of 5'UTR Stem-Loop Driven Prion Protein mRNA Translation in H4 Neuroglioblastoma Cells. [Related pubchem assays: 1827 (Project Summary), 1813 (Primary HTS)]. The format is functional.
Test [3] in a line: inhibitors of SNCA 5'UTR-driven reporter translation, confirmation, H4 neuroglioma cells, luminescence (AID 1988). In kind it is functional, cell-based.
In test [4] the target is T1, Heat shock factor protein 1 (Mus musculus, UniProt P38532).
T1 sequence (P38532 whole entry): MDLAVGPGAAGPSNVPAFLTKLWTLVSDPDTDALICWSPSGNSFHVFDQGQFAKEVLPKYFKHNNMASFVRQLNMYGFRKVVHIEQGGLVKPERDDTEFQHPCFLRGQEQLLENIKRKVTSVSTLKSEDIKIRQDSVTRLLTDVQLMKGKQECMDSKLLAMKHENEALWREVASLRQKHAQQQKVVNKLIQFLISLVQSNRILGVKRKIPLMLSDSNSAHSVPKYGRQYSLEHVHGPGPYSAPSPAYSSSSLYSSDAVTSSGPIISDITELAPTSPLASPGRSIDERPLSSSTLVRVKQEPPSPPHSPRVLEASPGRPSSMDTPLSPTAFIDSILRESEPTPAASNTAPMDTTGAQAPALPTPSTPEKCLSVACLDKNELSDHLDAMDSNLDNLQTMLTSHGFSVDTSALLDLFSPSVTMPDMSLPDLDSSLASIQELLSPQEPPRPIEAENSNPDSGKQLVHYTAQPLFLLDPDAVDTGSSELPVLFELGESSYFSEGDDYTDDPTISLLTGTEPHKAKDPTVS
Put plainly: inhibition of MG132-induced HSE-luciferase signal, confirmation, cell-based, NIH3T3, luminescence, dose retest (AID 2382).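 Further: NIH3T3 fibroblasts with HSF1-driven luciferase reporter stressed by proteasome inhibitor MG132; luminescence from HSF1-driven luciferase expression after 8 hours of MG132 stress.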 The format is functional.

Another test deals with Cytochrome P450 2C9 (Homo sapiens, UniProt P11712).
The target of test [5] is T2, RNA-binding protein pos-1 (Caenorhabditis elegans, UniProt G5EF15).
T2 sequence (G5EF15 whole entry): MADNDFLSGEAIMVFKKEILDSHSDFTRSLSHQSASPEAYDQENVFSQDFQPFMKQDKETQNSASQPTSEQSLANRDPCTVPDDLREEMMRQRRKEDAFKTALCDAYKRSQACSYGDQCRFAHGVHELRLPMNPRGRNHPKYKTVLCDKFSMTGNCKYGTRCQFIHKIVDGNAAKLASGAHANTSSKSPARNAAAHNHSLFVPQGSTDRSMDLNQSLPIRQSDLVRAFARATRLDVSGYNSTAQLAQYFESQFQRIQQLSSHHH
Briefly: inhibitors of POS-1/mex-3 RNA binding, dose response, biochemical, fluorescence polarization (AID 1964).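 Further: purified POS-1 fused to maltose binding protein made in E. coli; potency of compounds blocking POS-1 binding to fluorescent RNA.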 In general terms: Fluorescence polarisation rises when a labelled molecule tumbles more slowly, as on binding a larger partner.

For test [6], the target named is T3, Zinc finger protein mex-5 (Caenorhabditis elegans, UniProt Q9XUB2).
T3 sequence (Q9XUB2 whole entry): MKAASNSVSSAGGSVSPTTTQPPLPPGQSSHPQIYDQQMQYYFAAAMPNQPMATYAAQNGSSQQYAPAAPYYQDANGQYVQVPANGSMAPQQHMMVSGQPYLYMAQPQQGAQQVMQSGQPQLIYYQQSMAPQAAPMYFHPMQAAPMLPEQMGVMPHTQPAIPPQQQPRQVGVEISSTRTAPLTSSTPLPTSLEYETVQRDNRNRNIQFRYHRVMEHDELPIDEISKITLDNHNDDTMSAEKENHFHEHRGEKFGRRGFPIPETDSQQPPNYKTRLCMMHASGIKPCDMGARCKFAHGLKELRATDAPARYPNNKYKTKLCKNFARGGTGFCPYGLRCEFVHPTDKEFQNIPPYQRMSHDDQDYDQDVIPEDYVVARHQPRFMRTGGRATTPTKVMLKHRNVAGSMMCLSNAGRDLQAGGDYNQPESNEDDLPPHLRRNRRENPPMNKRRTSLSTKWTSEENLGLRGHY
Put plainly: MEX-5/TCR-2 RNA interaction inhibitors, dose response, biochemical, C. elegans, fluorescence polarization (AID 1960).

The next test deals with T4, Protein skinhead-1 (Caenorhabditis elegans, UniProt P34707).
T4 sequence (P34707 whole entry): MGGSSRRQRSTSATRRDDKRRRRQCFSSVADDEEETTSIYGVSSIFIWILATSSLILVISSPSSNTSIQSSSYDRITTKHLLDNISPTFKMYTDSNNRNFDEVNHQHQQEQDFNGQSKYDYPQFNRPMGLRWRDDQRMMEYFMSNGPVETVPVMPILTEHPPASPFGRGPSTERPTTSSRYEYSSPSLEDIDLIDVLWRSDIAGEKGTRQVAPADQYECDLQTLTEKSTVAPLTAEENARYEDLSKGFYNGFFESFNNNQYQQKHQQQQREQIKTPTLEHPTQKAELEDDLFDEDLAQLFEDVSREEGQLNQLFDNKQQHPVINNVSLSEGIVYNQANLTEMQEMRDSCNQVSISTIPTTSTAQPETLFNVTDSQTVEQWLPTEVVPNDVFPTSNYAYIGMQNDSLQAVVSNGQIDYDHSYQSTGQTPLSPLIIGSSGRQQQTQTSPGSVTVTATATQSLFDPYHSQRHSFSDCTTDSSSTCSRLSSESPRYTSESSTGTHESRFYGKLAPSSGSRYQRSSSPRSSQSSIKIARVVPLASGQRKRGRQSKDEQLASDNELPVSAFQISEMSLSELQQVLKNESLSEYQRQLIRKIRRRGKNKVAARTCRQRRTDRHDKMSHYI
The format is functional.

The target of another test is T5, Cytochrome P450 1A2 (Homo sapiens, UniProt P05177).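 Further: PubChem cytochrome P450 panel assay, CYP1A2 panel member.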
T5 sequence (P05177 whole entry): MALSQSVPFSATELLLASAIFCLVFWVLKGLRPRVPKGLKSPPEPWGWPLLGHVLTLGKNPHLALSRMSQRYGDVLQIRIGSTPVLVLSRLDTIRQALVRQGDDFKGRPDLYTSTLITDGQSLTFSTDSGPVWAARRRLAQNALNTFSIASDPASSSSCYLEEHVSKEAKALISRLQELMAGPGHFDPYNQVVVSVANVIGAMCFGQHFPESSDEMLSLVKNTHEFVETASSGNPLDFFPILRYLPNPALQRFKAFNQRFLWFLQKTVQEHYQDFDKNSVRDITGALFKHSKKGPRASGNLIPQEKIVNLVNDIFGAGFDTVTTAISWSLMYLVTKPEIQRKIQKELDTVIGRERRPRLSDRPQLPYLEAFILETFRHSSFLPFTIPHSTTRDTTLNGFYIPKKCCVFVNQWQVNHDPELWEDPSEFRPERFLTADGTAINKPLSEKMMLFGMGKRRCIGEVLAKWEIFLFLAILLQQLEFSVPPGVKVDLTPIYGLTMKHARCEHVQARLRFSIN

The target of another test is Cytochrome P450 3A4 (Homo sapiens, UniProt P08684).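 Further: CYP3A4 tested as one member of a cytochrome P450 panel screen.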
The next test in a line: cells. In kind it is functional.
Test [7] in a line: Luminescence Cell-Based Dose Retest to Confirm Inhibitors of Cancer Stem Cells. [Related pubchem assays (depositor defined):AID2717, AID2721]. As to conditions: Homo sapiens. In kind it is functional.
Test [8] in a line: inhibitors of intracellular T. cruzi replication, confirmation, NIH3T3 host cells, beta-gal luminescence (AID 2044).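 Further: intracellular parasites grown in NIH/3T3 mouse fibroblasts as host cells; luminescent beta-galactosidase reporter signal from transgenic T. cruzi replicating inside host cells; inhibitors lower the luminescence signal.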 In kind it is functional, cell-based.
Test [9] in a line: cytotoxicity toward NIH3T3 fibroblasts, dose response, counter-screen, cell-based, ATP luminescence, mouse fibroblasts (AID 2010).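 Further: cells exposed to compound for about 90 hours before reading.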 In kind it is functional.

The values that follow come from ChEMBL document CHEMBL1201862, “PubChem BioAssay data set” (2004).

Each structure is given as a SMILES string. Structures can show the parent of a compound that is named as a salt. Activity calls are given as the source filed them. For most assays here, no stated cut-off is given here; in the data, actives have a measured EC50 and inactives only a lower limit. Where only a bound is given, the exact number is not on record here.

Chain of Cytochrome P450 2C9 (P11712 whole entry): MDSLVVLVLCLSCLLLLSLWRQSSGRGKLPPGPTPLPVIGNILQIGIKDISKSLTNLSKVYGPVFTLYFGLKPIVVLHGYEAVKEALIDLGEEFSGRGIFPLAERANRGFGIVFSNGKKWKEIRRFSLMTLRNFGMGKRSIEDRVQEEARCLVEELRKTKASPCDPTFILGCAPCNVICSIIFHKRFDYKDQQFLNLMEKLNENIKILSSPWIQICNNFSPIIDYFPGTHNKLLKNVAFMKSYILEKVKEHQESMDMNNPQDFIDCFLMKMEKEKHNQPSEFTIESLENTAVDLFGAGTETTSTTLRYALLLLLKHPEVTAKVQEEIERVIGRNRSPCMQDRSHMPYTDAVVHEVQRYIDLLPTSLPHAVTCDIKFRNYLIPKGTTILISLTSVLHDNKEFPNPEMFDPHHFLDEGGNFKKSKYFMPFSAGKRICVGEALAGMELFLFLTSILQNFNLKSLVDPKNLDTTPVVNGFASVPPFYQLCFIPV
Chain of Cytochrome P450 3A4 (P08684 whole entry): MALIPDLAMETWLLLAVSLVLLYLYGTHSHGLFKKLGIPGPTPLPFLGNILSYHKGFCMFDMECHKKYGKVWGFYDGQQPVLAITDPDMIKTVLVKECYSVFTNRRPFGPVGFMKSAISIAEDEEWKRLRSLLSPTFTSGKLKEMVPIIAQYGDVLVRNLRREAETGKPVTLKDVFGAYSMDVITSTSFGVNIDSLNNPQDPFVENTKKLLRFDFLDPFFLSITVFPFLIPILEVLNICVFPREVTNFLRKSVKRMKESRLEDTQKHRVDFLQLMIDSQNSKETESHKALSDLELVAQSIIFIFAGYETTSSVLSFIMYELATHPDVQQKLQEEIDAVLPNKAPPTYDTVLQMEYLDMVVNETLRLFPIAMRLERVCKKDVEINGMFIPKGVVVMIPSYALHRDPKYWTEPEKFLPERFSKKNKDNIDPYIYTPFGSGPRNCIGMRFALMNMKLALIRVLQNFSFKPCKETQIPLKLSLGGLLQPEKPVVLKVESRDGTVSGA

With `COc1ccc(S(=O)(=O)N2CCCCCC2)cc1NC(=O)Cc1ccccc1F`, the results for the EC50 in [1], in [2] and in [3] were 76.1 µM (active), > 120 µM (not active) and > 120 µM (not active), respectively.
Take `N#CC1=C(N)Oc2cc(N)ccc2C1c1ccccc1Cl` (configuration not stated): the concentration giving a half-maximal response (EC50) (usually the concentration giving half of the maximal effect) in test [4] is > 195 µM (not active).
As to `Fc1ccc([C@H]2CCNC[C@H]2COc2ccc3c(c2)OCO3)cc1`, the AC50 (commonly the midpoint of the concentration-response curve, whichever way the signal moves) at Cytochrome P450 2C9 was 2 µM (inconclusive).
`CCN(CC)CCN/C=C1\C(=O)NC(=O)N(CCc2ccccc2)C1=O`: the EC50 in test [5] and in test [6] was > 300 µM (not active) in each case.
Regarding `CSc1ccc(CN(C)Cc2cc(=O)oc3c(C)c(C)ccc23)cc1`, in test [4], the EC50 is > 195 µM (not active).
As to `C=CCNC(=S)NNC(=O)c1cc(-c2cccnc2)nc2ccccc12`, the EC50 in [4] is on record as > 195 µM (not active).
Turning to `O=C(NNc1nc2ccccc2s1)Nc1ccccc1`, the EC50 in test [4] is reported as > 195 µM (not active).
Regarding `COc1ccc(C2C3=C(N=C4SCC(=O)N42)c2ccccc2CC3)cc1OC` (configuration not stated), the IC50 (usually the concentration at which inhibition is half-maximal) at Protein skinhead-1 is > 100 µM (inactive).
Turning to `CC(C)NC(=O)N1CCCC2(CCN(C(=O)Oc3ccccc3)CC2)C1`, the concentration at half-maximal activity (AC50) is 12.6 µM (inconclusive) on Cytochrome P450 1A2, 25.1 µM (inconclusive) at Cytochrome P450 3A4 and 12.6 µM (inconclusive) at Cytochrome P450 2C9.
For `Clc1ccc(-c2cnc3ccccc3n2)cc1`, the IC50 at Protein skinhead-1 is 92 µM (inactive).
For the molecule `Cn1c(=O)c2nc(N/N=C(/C#N)C(N)=O)[nH]c2n(C)c1=O`, the EC50 is > 300 µM (not active) in test [5] and 52.4 µM (active) in test [6].
In the case of `Cc1oc(/N=C/c2ccc(O)cc2O)c(C#N)c1C`, the EC50 in test [5] and in test [6] was > 300 µM (not active) in each case.
As for `CCC(NC(C)c1ccccc1)=C1C(=O)NC(=O)NC1=O` (configuration not stated), the EC50 in test [1] was 18 µM (active); in test [2] it was > 120 µM (not active); in [3] it was 18.2 µM (active).
As to `CCOCCOC(=O)c1ccc(NC(=O)C2COc3ccccc3O2)cc1` (configuration not stated), the IC50 in the test “cells” is 15.2 µM (active).
`Cc1nc2c(sc3nc(N4CCOCC4)c4c(c32)CC(C)(C)OC4)c(-c2ccc(Cl)cc2)c1C(=O)O`: the EC50 in test [4] is > 195 µM (not active).
`CCCc1cc(-c2nc(-c3ccc(Cl)cc3)cs2)ccn1`: the AC50 in [7] is 8.69 µM (active). For the same molecule, the IC50 on Protein skinhead-1 was 21 µM (active).
Consider `COC(=O)C1=C(N)OC2=C(C(=O)CC(C)(C)C2)C1c1cccnc1` (configuration not stated), for which the IC50 in “cells” was > 50 µM (active).
`C/C(=N\Nc1cccc2cccnc12)c1ccccn1`: the values for the EC50 in [8] and in [9] were 2.51 µM (active) and > 60 µM (not active), respectively. In the test “cells”, the half-maximal inhibitory concentration (IC50) is 13.8 µM (active).
As for `O=C(CCl)NC(Cc1ccccc1)c1ccccc1` (configuration not stated), the EC50 in test [4] is 17.1 µM (active).
In the case of `COc1ccc2c3c1O[C@H]1C[C@@H](O)C=C[C@@]31CCN(C)C2` [GALANTAMINE HYDROBROMIDE], the half-maximal effective concentration (EC50) in [1] is > 120 µM (not active); in test [2], > 120 µM (not active); in test [3], 11.1 µM (active).
For `COc1ccccc1N1CCN(CCC(=O)Nc2ccc3c(c2)OCO3)CC1`, the IC50 at Protein skinhead-1 is > 100 µM (inactive).
As for `O=C(Nc1ccc(Cl)c(C(F)(F)F)c1)C1CCCN(S(=O)(=O)c2c[nH]cn2)C1` (configuration not stated), the AC50 at Cytochrome P450 2C9 is 0.501 µM (inconclusive).
As for `CCn1ncc2c(OCc3ccc(C#N)cc3)cc(C)nc21`, the results for the EC50 in test [1], in [2] and in test [3] were 21.5 µM (active), 24.9 µM (active) and 61.8 µM (active), respectively.
Take `Cc1ccccc1C1=N/C(=C/c2cccs2)C(=O)O1`: the EC50 in test [5] was > 300 µM (not active); in [6], 39.1 µM (active).
As to `CC(C)CC(=O)Nc1c2c(nn1-c1ccc(F)cc1)C[S+]([O-])C2` (configuration not stated), the EC50 in [4] is > 195 µM (not active).
On to `CCc1nc2ccccc2c(C(=O)OCC(=O)N(CCOC)c2c(N)n(Cc3ccccc3)c(=O)[nH]c2=O)c1C`, for which the IC50 on Protein skinhead-1 is > 100 µM (inactive).
Regarding `Cc1ccc(CSc2nc3ccccc3c(=O)n2Cc2ccco2)cc1`, the IC50 on Protein skinhead-1 is > 100 µM (inactive).
As to `CCN1C(=O)NC(=O)/C(=C\c2cn(CC(=O)O)c3ccccc23)C1=O`, the EC50 in test [5] and in [6] was > 300 µM (not active) in each case.
Consider `Nc1ccc(-n2nc3ccccc3n2)cc1`, for which the values for the EC50 in test [1], in test [2] and in [3] were 31.8 µM (active), 67 µM (active) and 5.68 µM (active), respectively.
As for `CCCCNC(=O)OCC(CC)NC(=O)OCC(C)C` (configuration not stated), the IC50 at Protein skinhead-1 is > 100 µM (inactive).
On the same count and under the same terms, to `Cc1csc2nc(CNS(=O)(=O)c3ccc4c(c3)CCCC4)cn12` belongs > 100 µM (inactive).
Consider `NS(=O)(=O)c1ccc(/N=N\c2ncccc2O)cc1`, for which the values for the AC50 on Cytochrome P450 1A2, at Cytochrome P450 3A4 and on Cytochrome P450 2C9 were 2 µM (inconclusive), 3.98 µM (inconclusive) and 6.31 µM (inconclusive), respectively.
Take `CCn1c(CSc2nnc(-c3ccncc3)n2CCOC)nc2cc(C(=O)O)ccc21`: on Protein skinhead-1, the IC50 is > 100 µM (inactive).
In the case of `COc1ccc(NC(=O)c2ccc(C(=O)c3cc(OC)ccc3OC)cc2)cc1`, at Cytochrome P450 2C9, the AC50 was 22.4 µM (inconclusive).
For `CCO/C(C)=N/n1c2nc3ccccc3nc2c2c(=O)n(CC(C)C)c(C)nc21`, at Cytochrome P450 2C9, the AC50 was 12.6 µM (inconclusive).
